Reference: ChEMBL document CHEMBL3507680, “University of Dundee, Gates Library screen for HepG2 cell viability”

Assay: Human HepG2 cell viability assay in 384 well format
Assay type: toxicity, cell-based
Design: dose 125 nL, time 70.5 hour; concentration not given beside the values
Details: HepG2 cells, read-out: Inhibition

Row | SMILES | cytotoxicity at 70.5 h [%]
1 | CC(C)N1CCN(C(=O)Cc2csc(-c3ccco3)n2)CC1 | -0.696
2 | Cc1ccc(CC2COCCN(Cc3ccccc3)C2)nc1 (configuration not stated) | -2.48
3 | COc1ncccc1CN1Cc2nnn(C)c2C(COCC2CC2)C1 (configuration not stated) | 1.61
4 | O=C(c1ccoc1)N1CC[C@@H]2O[C@@H](COCCN3CCCC3)CC[C@@H]21 | -12.6
5 | CCCc1cc(C(=O)N(Cc2cccnc2)C[C@@H]2CCC(=O)N2)no1 | -6.41
6 | Cc1ocnc1C(=O)N1CCN(Cc2ccccc2)[C@@H]2CS(=O)(=O)C[C@@H]21 | -9.03
7 | CC(C)NC(=O)N1CCC2(CC1)COc1ccccc1S(=O)(=O)N(C)C2 | 0.573
8 | c1cc(CN2C[C@@H]3OCCN(CCN4CCCC4)[C@@H]3C2)cs1 | -8.5
9 | COc1cccc(-c2cnc(CNC(C)(C)c3nc(C)cs3)o2)c1 | -4.32
10 | O=C(NC[C@H]1OC[C@@H](NC2CCOCC2)[C@@H]1O)c1cccs1 | -8.14
11 | CC1CCCN(c2ccccc2OCC(=O)NC2CC2)C1 (configuration not stated) | 2.91
12 | Cc1cc(C)n2c(CCCNS(=O)(=O)c3ccc(F)cc3)nnc2n1 | -8.75
13 | COC(=O)CCN(CC1CCOC1)C1CC1 (configuration not stated) | 0.428
14 | CCc1noc(CN2CCC(C(=O)Nc3cnn(CC)c3)CC2)n1 | -10.6
15 | CCC(O)c1nc2c([nH]1)CC(C)(C)CNC2=O (configuration not stated) | 13
16 | CC(C)(C)OC(=O)N1CCN(c2nnc(Br)s2)CC1 | 18.7
17 | Cc1cccc(N2CCN(C(=O)CN3CCN(CCO)CC3)CC2)c1 | 0.659
18 | C/N=C1/c2cc3cc(OC)ccc3n2CCN1C | -0.795
19 | O=C(Cc1ccccc1)N1CCC2(CC(=O)N(c3cccc(F)c3)C2)C1 (configuration not stated) | -4.78
20 | CCS(=O)(=O)N1CCN(C)c2ncccc2C1 | -7.16
21 | COc1ccccc1CC(=O)N1CCC(NCc2c[nH]nc2C)CC1 | 2.03
22 | CCO[C@@H]1CC[C@H]2[C@H]1OCCN2C(=O)c1ccc(C)o1 | -4.6
23 | CSc1cccc(CN2CCC(CCC(=O)NCCN(C)C)CC2)c1 | -6.05

Row | SMILES | cytotoxicity at 70.5 h [%]
24 | CC(=O)NCC(=O)N1Cc2nccn2CC(Cn2cccn2)C1 (configuration not stated) | -4.71
25 | Cc1cc(CN2CCCC2c2c(C)nn(C)c2Cl)on1 (configuration not stated) | 0.0053
26 | CN1CCCC(Cc2cc(N(C)C)ncn2)C1 (configuration not stated) | -5.24
27 | CCn1c(C)nnc1CN(C)C1CCN(Cc2cnc(C)cn2)C1 (configuration not stated) | -0.885
28 | c1nc(N2CCCCC2Cn2cncn2)c2sccc2n1 (configuration not stated) | -5.69
29 | Fc1ccc(C2CN(CCc3ccncc3)CCO2)cc1 (configuration not stated) | 14.4
30 | CC(C)N1CCCC(CNC(=O)Cc2csc(-c3cccnc3)n2)C1 (configuration not stated) | -0.239
31 | COc1c(CNCc2ccc(C(=O)N(C)C)cc2)c(C)nn1C | 0.637
32 | COc1ccc(C(O)CNC(=O)NCc2csc(C)n2)cc1 (configuration not stated) | 27.2
33 | CNC(=O)CN(C)C1CCN(c2ccc(Cl)cc2)CC1 | 2.05
34 | CN(C)CCN1CCOCC2(CCN(Cc3ccc[nH]3)CC2)C1 | 0.665
35 | Cc1nc2ccccc2n1CCNCc1cccc(O)c1 | -4.75
36 | CCc1nc2c(s1)C(N(C)C(=O)c1csnn1)CCC2 (configuration not stated) | -5.63
37 | Cc1nc(C2(NCc3cccc(F)c3F)CCCCC2)no1 | -6.93
38 | CC(Nc1nccc(CCC(F)(F)F)n1)c1nc(-c2ccccn2)no1 (configuration not stated) | -2.61
39 | CC(C)CN1CCC(NC(=O)c2ccc(F)cc2I)CC1 | 11.3
40 | Cc1noc(C)c1C(=O)NCC(O)c1ccc(F)cc1F (configuration not stated) | 27.1
41 | CCCc1ccc(CN2CCN(C(=O)N(C)C)[C@@H]3CS(=O)(=O)C[C@@H]32)o1 | -10.7
42 | C=Cc1ccc(C(=O)N2CCCC(Nc3ccccc3)C2)cc1 (configuration not stated) | 26.6
43 | Cc1nnc2n1CCN(CC(=O)NC(C)c1ccc3ccccc3c1)C2 (configuration not stated) | 17.7
44 | Cc1nc(O)cc(CN2C[C@H](NC(=O)C3CCCC3)[C@@H](C3CC3)C2)n1 | -9.17
45 | O=C(NCC1CCN(CCc2ccccc2)C1)c1c(F)cccc1F (configuration not stated) | 14.6
46 | CC(Cn1cccn1)NCc1ccc(OCc2ccncc2)cc1 (configuration not stated) | 3.19

Row | SMILES | cytotoxicity at 70.5 h [%]
47 | COc1ccc(C)cc1C(C)NS(=O)(=O)c1ccc2c(c1)CCC(=O)N2 (configuration not stated) | 8.83
48 | Cc1noc(C)c1C(=O)NCC(c1ccc(F)cc1)N(C)C (configuration not stated) | -2.05
49 | COc1ccc(CN[C@@H]2CO[C@H](CNC(=O)NC(C)C)[C@H]2O)cc1 | -5.02
50 | CCOCCN1CCN(CC(=O)N2CCC2)CC1CC (configuration not stated) | -7.02
51 | Cc1occc1CNC(=O)NCCN(C)C1CCCC1 | -0.13
52 | CCOc1c(OC)cc(/C=C/c2ncc(C(=O)NC)s2)cc1OC | -7.3
53 | CC1CCCN(CCCNC(=O)c2cn(C)nc2-c2cccnc2)C1 (configuration not stated) | -2.34
54 | OCCc1ncnn1Cc1cccc(Cl)c1 | 44.4
55 | CCc1ccc(CN(C)Cc2cnc(S(=O)(=O)CC)n2CCOC)cc1 | -7.48
56 | CCc1ncc2c(n1)CN(Cc1cccc3c1OCCO3)CC2 | -3.18
57 | O=C1CC(N(C(=O)c2ccc(-n3cccc3)cc2)C2CC2)C(=O)N1 (configuration not stated) | -4.68
58 | CN1[C@H]2CC[C@@H]1CN(c1nc(-c3ccncc3)nc3c1cnn3C)CC2 | -2.38
59 | Cc1noc(C)c1C[S+]([O-])Cc1cn2cccc(C)c2n1 (configuration not stated) | -4.48
60 | COc1ccc([C@@H]2CN(C(=O)CCn3cccn3)C[C@H]2NC(C)=O)cc1 | 6.76
61 | CN(c1cccnn1)[C@@H]1CC[C@@H]2CN(Cc3ccccc3C(=O)O)C[C@@H]21 | -6.92
62 | Cc1oncc1C(=O)N[C@@H]1CN(CC2CC2)C[C@@H]2CCCO[C@@H]21 | -10.1
63 | COc1ncccc1CN1CC[C@H]2O[C@H](c3nnc(C)o3)CC[C@H]21 | -11.5
64 | CN(C)C(=O)CC1CC2(CCN(c3ncccn3)CC2)c2ccccc21 (configuration not stated) | -0.293
65 | COc1cccc(-c2c[nH]c(C3CCCN3)n2)c1 (configuration not stated) | -4.68
66 | CNC(=O)CN1CCC(NC(=O)Cc2ccc3c(c2)OCCO3)CC1 | 0.523
67 | Cn1ccnc1Sc1ncc(C(=O)N2CCCCC2)cc1Cl | -4.57
68 | CCc1nc(CS(=O)(=O)Cc2noc(C3CC3)n2)cs1 | -1.78
69 | O=C(NCc1csc(Cc2ccccc2)n1)C1NCCc2[nH]cnc21 (configuration not stated) | -2.44

Row | SMILES | cytotoxicity at 70.5 h [%]
70 | CC(=O)Nc1ncc(S(=O)(=O)Nc2ccccc2F)s1 | -9.78
71 | CC(c1cncs1)N(C)Cc1ccc(CCC(C)(C)O)cc1 (configuration not stated) | -5.33
72 | CCOC(C)c1nc(CN2CCC(CNC(C)=O)CC2)cs1 (configuration not stated) | -2.36
73 | CN(C)C(=O)N1CCC2(CCCN(CCOc3ccccc3)C2)C1 (configuration not stated) | -14.6
74 | COCCN1CCc2c(c(COc3cccnc3)nn2C)C1 | -8.79
75 | CC(C)C(NC(=O)c1ccccc1F)C(=O)N1CCC2(CC1)OCCO2 (configuration not stated) | -1.01
76 | CCCc1cc(N2CCC(NCC3(O)CCN(C)CC3)CC2)nc(C)n1 | -6.43
77 | CNC(=O)c1cnc(C)nc1CCNC(=O)CCc1ccccc1 | 7.59
78 | CC(C)c1ccc(CN2CCN(C(=O)c3cc(C4CC4)[nH]n3)CC2)cc1 | 44.7
79 | Cc1ccn(CCC(=O)NCc2ccc(C)o2)n1 | -1.65
80 | Cc1cc(CN2CCC(N(C)Cc3noc(C4CC4)n3)C2)on1 (configuration not stated) | 19.5
81 | Cc1cnn(CC2CCCN2C(=O)c2cnc3n[nH]c(C)c3c2)c1 (configuration not stated) | 15.1
82 | Cc1nc(CNc2ccccc2CCC(F)(F)F)cs1 | -9.96
83 | CC(C)Oc1ccc(CN2CCCC(N3CCOCC3)C2)cc1CO (configuration not stated) | -5.76
84 | c1cnc(N2CCO[C@H]3CN(Cc4csnn4)C[C@H]32)cn1 | -11.1
85 | COC(=O)CNC(=O)CSCc1nc(O)c2cc(C(C)C)sc2n1 | -14.3
86 | COC(=O)[C@H]1CN(C(=O)NC(C)C)CCN1C(=O)CSC | -5.64
87 | O=C(CC(F)(F)F)N1CCc2onc(Cn3cccn3)c2C1 | -13.4
88 | CC(C)c1nn(C)c(N(C)C)c1CNCCC(=O)NC1CCCC1 | 26.8
89 | O=C(c1ccc(Cl)cc1)N1CCn2c(nn(-c3cccc(Cl)c3)c2=O)C1 | -6.26
90 | Cc1[nH]c(=O)[nH]c(=O)c1CN1CCCC(CCc2ccc(F)cc2F)C1 (configuration not stated) | -9.69
91 | CC(Cc1ccccn1)N(C)C(=O)c1ncc[nH]1 (configuration not stated) | -8.42
92 | O=C1CSCN1CC(=O)N1CCCC1c1nc2ccccc2s1 (configuration not stated) | 2.26

Row | SMILES | cytotoxicity at 70.5 h [%]
93 | CC(C)(C)NC(=O)c1ccc(COCC(F)(F)F)o1 | -4.89
94 | Cc1c(CN2CCCCC2)c(O)n(CCCO)c(=O)c1C#N | -4.27
95 | COCCn1cc(C(=O)Nc2nc3c(s2)CCC3)c2ccccc21 | 37
96 | CC(=O)N1CCN(C(=O)C2SCCc3sccc32)CC1 (configuration not stated) | 20.4
97 | CC(C)(C)c1cnc(CN2CCCC2Cn2cccn2)o1 (configuration not stated) | -5.71
98 | Cc1nc(CN2CCCC(NCc3cnn(C)c3)C2)no1 (configuration not stated) | -8.69
99 | CC(C)(C)OC(=O)NC(C)(C)c1noc(CSc2ccccn2)n1 | -1.21
100 | CCC1CN(Cc2c(O)ccc3oc4c(c23)CCCC4)CCO1 (configuration not stated) | 8.92
101 | CCc1nc(C2CCCN2Cc2ncc(C)c(OC)c2C)no1 (configuration not stated) | -5.08
102 | CC(C)CN1C(=O)COC[C@@H]1[C@H](O)c1ccc(NC(=O)C2CC2)cc1 | 5.4
103 | COCCN(C)C[C@@H]1CN(C(=O)c2ccc(C)c(Cl)c2)C[C@@H]1CO | 1.13
104 | CC(C)CC(=O)N1CC[C@@H]2[C@H](CC1)N(S(C)(=O)=O)CCS2(=O)=O | -4.28
105 | COCc1cccc(CNCc2c(C(C)C)nn(C)c2N(C)C)c1 | -7.7
106 | O=C1O[C@@H]2CN(Cc3ccncc3)C[C@@H]2N1CCCN1CCOCC1 | -3.93
107 | O=C(c1ccnnc1)N1C[C@H](OCc2ccccn2)[C@H]2COC[C@H]21 | 4.62
108 | COCCN1CCN(Cc2cccc(C(=O)N(C)C)c2)CC1 | -4.26
109 | FC(F)(F)c1ccc2nc([C@H]3CCN(C4CCC4)C3)[nH]c2c1 | -7.81
110 | CN(CCC(O)c1ccccc1)c1cc(N2CCOCC2)ncn1 (configuration not stated) | -11
111 | Cc1ccc(N2CCC3(CCN(C(=O)c4ccsc4)C3)CC2)nn1 | -12.9
112 | CCn1nc(C)c(CNC(=O)c2nnc3ccc(OC)cc3n2)c1C | -3.67
